From US11213517B2, “Pharmaceutical combination comprising a T-type calcium channel blocker” (IDORSIA PHARMACEUTICALS LTD, priority 2016, dated 2022)
“And” between values parts separate entries of the source, which are not always exact repeats. Identical values can stand only once. Like-named read-outs stand apart in the source and are kept apart here.

Tests used:
[1] = test system: audiogenic seizure-sensitive juvenile DBA/2J mice; assay: Audiogenic seizure-sensitive juvenile DBA/2J mouse model of generalized tonic-clonic seizures; format: in vivo; parameters: key: 0 none, 1 wild running, 2 clonus, 3 hind-limb tonic extension; settings: COMPOUND 1 10 mg/kg 3 h + vehicle 1 h before stimulus, oral gavage; mean ± SEM; 10 mg/kg
Excerpt: Audiogenic Seizure-Sensitive Juvenile DBA/2J Mouse Model of Generalized Tonic-Clonic Seizures
The inbred DBA/2J mouse strain carries an increased general susceptibility for acute generalized convulsive seizures induced by either pharmacological, electrical or, as juvenile, auditory stimuli. At the age of 17 to 28 days (juvenile), they show tonic-clonic convulsions when exposed to a loud tone.
Male juvenile DBA/2J mice (22-24 days old, body weight between 6.6 and 14.5 grams) were used. Each mouse was placed individually in the exposure chamber, an hemispheric acrylic glass dome (diameter: 50 cm) within a sound-attenuated box. After 60 seconds of habituation, an auditory stimulus of mixed frequency tone (15-20 kHz at 110 dB) was played from a speaker placed on the top center of the dome.
The sound-attenuated box was equipped with lights and a camera system in order to observe and record the behavioral seizure response classified as following: • stage 0, no response • stage 1, wild running • stage 2, clonus • stage 3, tonic extension of the hind limbs.
(§1) Different combination efficacy experiments are performed. […] Each experiment consists of four treatment groups: • 1. Vehicle (10% Polyethylene glycol400 (PEG400)/90% methylcellulose (0.5% in water; MC0.5%)), 3 h before exposure to the auditory stimulus+vehicle, 1 h before exposure to the auditory stimulus; • 2. COMPOUND 1 (in 10% PEG400/90% MC0.5%), 3 h before exposure to the auditory stimulus+vehicle, 1 h before exposure to the auditory stimulus; • 3. Vehicle, 3 h before exposure to the auditory stimulus+AED (in 10% PEG400/90% MC0.5%), 1 h before exposure to the auditory stimulus; and • 4. COMPOUND 1 (in 10% PEG400/90% MC0.5%), 3 h before exposure to the auditory stimulus+AED (in 10% PEG400/90% MC0.5%), 1 h before exposure to the auditory stimulus.

[2] = Plasma and brain concentrations of drugs at the end of the audiogenic seizure experiment (LC-MS); format: in vivo, mouse; settings: for plasma and brain concentrations after administration of the compounds alone or in combination: juvenile DBA/2J mice; for concentration at 3 h: DBA/2J, mouse
Method: Briefly, blood was sampled from the vena cava caudalis with a syringe pre-filled with EDTA (ethylenediamine tetraacetic acid) as anticoagulant and centrifuged to yield plasma (for 10 minutes, at 4° C. and 5000 rpm (rounds per minute)). Brain was sampled and homogenized into one volume of cold phosphate buffer (pH 7.4). Following extraction with methanol, concentrations of the compound in plasma and brain were determined using liquid chromatography coupled to mass spectrometry.
as §1

[3] = analyte COMPOUND 1, COMPOUND 1 10 mg/kg 3 h + vehicle 1 h before stimulus, oral gavage, mean ± SEM, 10 mg/kg

Structure (SMILES): N#Cc1ccc(Cn2ccc(NC(=O)Cc3ccc(C4(C(F)(F)F)CC4)cc3)n2)nc1 [COMPOUND 1, N-[1-(5-Cyano-pyridin-2-ylmethyl)-1H-pyrazol-3-yl]-2-[4-(1-trifluoromethyl-cyclopropyl)-phenyl]-acetamide]
- Seizure stage (maximal seizure stage observed during exposure to auditory stimulus) [1]: 3 and 2.7 ± 0.3 and 3.0 ± 0.0 and 2.9 ± 0.1 and 2.7 ± 0.2 and 2.8 ± 0.2
- plasma and brain concentrations after administration of the compounds alone or in combination ([2]; COMPOUND 1 and LEV): similar
- plasma and brain concentrations after administration of the compounds alone or in combination ([2]; COMPOUND 1 and lamotrigine): similar
- plasma and brain concentrations after administration of the compounds alone or in combination ([2]; COMPOUND 1 and valproic acid): similar
- concentration at 3 h ([2]; brain, oral, analyte COMPOUND 1, COMPOUND 1 10 mg/kg 3 h + LEV 1 mg/kg 1 h before stimulus, oral gavage, mean ± SEM, read-out: Brain concentration total): 1930 ± 100 ng/g
- concentration at 3 h ([2]; brain, oral, analyte COMPOUND 1, COMPOUND 1 10 mg/kg 3 h + LEV 3 mg/kg 1 h before stimulus, oral gavage, mean ± SEM, read-out: Brain concentration total): 2520 ± 190 ng/g
- concentration at 3 h ([2]; brain, oral, analyte COMPOUND 1, COMPOUND 1 10 mg/kg 3 h + LEV 10 mg/kg 1 h before stimulus, oral gavage, mean ± SEM, read-out: Brain concentration total): 2030 ± 137 ng/g
- concentration at 3 h ([2]; brain, oral, analyte COMPOUND 1, COMPOUND 1 10 mg/kg 3 h + LEV 50 mg/kg 1 h before stimulus, oral gavage, mean ± SEM, read-out: Brain concentration total): 1810 ± 93 ng/g
- concentration at 3 h ([2]; brain, oral, analyte COMPOUND 1, COMPOUND 1 10 mg/kg 3 h + LTG 10 mg/kg 1 h before stimulus, oral gavage, mean ± SEM, read-out: Brain concentration total): 1420 ± 165 ng/g
- concentration at 3 h ([2]; brain, oral, analyte COMPOUND 1, COMPOUND 1 10 mg/kg 3 h + VPA 100 mg/kg 1 h before stimulus, oral gavage, mean ± SEM, read-out: Brain concentration total): 2040 ± 178 ng/g
- concentration at 3 h ([2]; brain, oral, analyte COMPOUND 1, COMPOUND 1 10 mg/kg 3 h + VPA 200 mg/kg 1 h before stimulus, oral gavage, mean ± SEM, read-out: Brain concentration total): 1640 ± 52 ng/g
- concentration at 3 h ([2]; brain, oral, analyte COMPOUND 1, COMPOUND 1 30 mg/kg 3 h + LEV 3 mg/kg 1 h before stimulus, oral gavage, mean ± SEM, read-out: Brain concentration total): 5960 ± 330 ng/g
- concentration at 3 h ([2]; brain, oral, analyte COMPOUND 1, COMPOUND 1 30 mg/kg 3 h + LEV 10 mg/kg 1 h before stimulus, oral gavage, mean ± SEM, read-out: Brain concentration total): 5470 ± 533 ng/g
- concentration at 3 h ([2]; brain, oral, analyte COMPOUND 1, COMPOUND 1 30 mg/kg 3 h + LEV 50 mg/kg 1 h before stimulus, oral gavage, mean ± SEM, read-out: Brain concentration total): 4690 ± 399 ng/g
- concentration at 3 h ([2]; brain, oral, analyte COMPOUND 1, COMPOUND 1 30 mg/kg 3 h + LTG 3 mg/kg 1 h before stimulus, oral gavage, mean ± SEM, read-out: Brain concentration total): 5030 ± 238 ng/g
- concentration at 3 h ([2]; brain, oral, analyte COMPOUND 1, COMPOUND 1 30 mg/kg 3 h + LTG 10 mg/kg 1 h before stimulus, oral gavage, mean ± SEM, read-out: Brain concentration total): 4260 ± 350 ng/g
- concentration at 3 h ([2]; brain, oral, analyte COMPOUND 1, COMPOUND 1 30 mg/kg 3 h + LTG 30 mg/kg 1 h before stimulus, oral gavage, mean ± SEM, read-out: Brain concentration total): 3290 ± 170 ng/g
- concentration at 3 h ([2]; brain, oral, analyte COMPOUND 1, COMPOUND 1 30 mg/kg 3 h + VPA 30 mg/kg 1 h before stimulus, oral gavage, mean ± SEM, read-out: Brain concentration total): 5100 ± 375 ng/g
- concentration at 3 h ([2]; brain, oral, analyte COMPOUND 1, COMPOUND 1 30 mg/kg 3 h + VPA 100 mg/kg 1 h before stimulus, oral gavage, mean ± SEM, read-out: Brain concentration total): 5980 ± 336 ng/g
- concentration at 3 h ([2]; brain, oral, analyte COMPOUND 1, COMPOUND 1 30 mg/kg 3 h + VPA 200 mg/kg 1 h before stimulus, oral gavage, mean ± SEM, read-out: Brain concentration total): 4990 ± 245 ng/g
- concentration at 3 h ([2]; brain, po, 10 mg/kg, analyte COMPOUND 1, COMPOUND 1 10 mg/kg 3 h + vehicle 1 h before stimulus, oral gavage, mean ± SEM, read-out: Brain concentration total): 1450 ± 104 ng/g
- concentration at 3 h ([2]; brain, po, 30 mg/kg, analyte COMPOUND 1, COMPOUND 1 30 mg/kg 3 h + vehicle 1 h before stimulus, oral gavage, mean ± SEM, read-out: Brain concentration total): 5230 ± 487 ng/g
- concentration at 3 h ([2]; plasma, oral, analyte COMPOUND 1, COMPOUND 1 10 mg/kg 3 h + LEV 1 mg/kg 1 h before stimulus, oral gavage, mean ± SEM, read-out: Plasma concentration total): 1500 ± 112 ng/mL
- concentration at 3 h ([2]; plasma, oral, analyte COMPOUND 1, COMPOUND 1 10 mg/kg 3 h + LEV 3 mg/kg 1 h before stimulus, oral gavage, mean ± SEM, read-out: Plasma concentration total): 1600 ± 111 ng/mL
- concentration at 3 h ([2]; plasma, oral, analyte COMPOUND 1, COMPOUND 1 10 mg/kg 3 h + LEV 10 mg/kg 1 h before stimulus, oral gavage, mean ± SEM, read-out: Plasma concentration total): 1590 ± 142 ng/mL
- concentration at 3 h ([2]; plasma, oral, analyte COMPOUND 1, COMPOUND 1 10 mg/kg 3 h + LEV 50 mg/kg 1 h before stimulus, oral gavage, mean ± SEM, read-out: Plasma concentration total): 1720 ± 124 ng/mL
- concentration at 3 h ([2]; plasma, oral, analyte COMPOUND 1, COMPOUND 1 10 mg/kg 3 h + LTG 10 mg/kg 1 h before stimulus, oral gavage, mean ± SEM, read-out: Plasma concentration total): 1290 ± 140 ng/mL
- concentration at 3 h ([2]; plasma, oral, analyte COMPOUND 1, COMPOUND 1 10 mg/kg 3 h + VPA 100 mg/kg 1 h before stimulus, oral gavage, mean ± SEM, read-out: Plasma concentration total): 710 ± 80 ng/mL
- concentration at 3 h ([2]; plasma, oral, analyte COMPOUND 1, COMPOUND 1 10 mg/kg 3 h + VPA 200 mg/kg 1 h before stimulus, oral gavage, mean ± SEM, read-out: Plasma concentration total): 1160 ± 73 ng/mL
- concentration at 3 h ([2]; plasma, oral, analyte COMPOUND 1, COMPOUND 1 30 mg/kg 3 h + LEV 3 mg/kg 1 h before stimulus, oral gavage, mean ± SEM, read-out: Plasma concentration total): 4530 ± 224 ng/mL
- concentration at 3 h ([2]; plasma, oral, analyte COMPOUND 1, COMPOUND 1 30 mg/kg 3 h + LEV 10 mg/kg 1 h before stimulus, oral gavage, mean ± SEM, read-out: Plasma concentration total): 4120 ± 315 ng/mL
- concentration at 3 h ([2]; plasma, oral, analyte COMPOUND 1, COMPOUND 1 30 mg/kg 3 h + LEV 50 mg/kg 1 h before stimulus, oral gavage, mean ± SEM, read-out: Plasma concentration total): 3720 ± 351 ng/mL
- concentration at 3 h ([2]; plasma, oral, analyte COMPOUND 1, COMPOUND 1 30 mg/kg 3 h + LTG 3 mg/kg 1 h before stimulus, oral gavage, mean ± SEM, read-out: Plasma concentration total): 4550 ± 293 ng/mL
- concentration at 3 h ([2]; plasma, oral, analyte COMPOUND 1, COMPOUND 1 30 mg/kg 3 h + LTG 10 mg/kg 1 h before stimulus, oral gavage, mean ± SEM, read-out: Plasma concentration total): 3960 ± 372 ng/mL
- concentration at 3 h ([2]; plasma, oral, analyte COMPOUND 1, COMPOUND 1 30 mg/kg 3 h + LTG 30 mg/kg 1 h before stimulus, oral gavage, mean ± SEM, read-out: Plasma concentration total): 2920 ± 150 ng/mL
- concentration at 3 h ([2]; plasma, oral, analyte COMPOUND 1, COMPOUND 1 30 mg/kg 3 h + VPA 30 mg/kg 1 h before stimulus, oral gavage, mean ± SEM, read-out: Plasma concentration total): 3150 ± 296 ng/mL
- concentration at 3 h ([2]; plasma, oral, analyte COMPOUND 1, COMPOUND 1 30 mg/kg 3 h + VPA 100 mg/kg 1 h before stimulus, oral gavage, mean ± SEM, read-out: Plasma concentration total): 2820 ± 256 ng/mL
- concentration at 3 h ([2]; plasma, oral, analyte COMPOUND 1, COMPOUND 1 30 mg/kg 3 h + VPA 200 mg/kg 1 h before stimulus, oral gavage, mean ± SEM, read-out: Plasma concentration total): 2110 ± 118 ng/mL
- concentration at 3 h ([2]; plasma, po, 10 mg/kg, analyte COMPOUND 1, COMPOUND 1 10 mg/kg 3 h + vehicle 1 h before stimulus, oral gavage, mean ± SEM, read-out: Plasma concentration total): 2120 ± 175 ng/mL
- concentration at 3 h ([2]; plasma, po, 30 mg/kg, analyte COMPOUND 1, COMPOUND 1 30 mg/kg 3 h + vehicle 1 h before stimulus, oral gavage, mean ± SEM, read-out: Plasma concentration total): 3090 ± 297 ng/mL
- Brain concentration total [2, 3]: 1895 ± 75 ng/g and 2379 ± 164 ng/g and 1965 ± 138 ng/g and 1743 ± 158 ng/g and 1435 ± 55 ng/g and 1197 ± 80 ng/g
- Plasma concentration total [2, 3]: 1128 ± 98 ng/mL and 1858 ± 116 ng/mL and 1894 ± 113 ng/mL and 1785 ± 186 ng/mL and 1318 ± 77 ng/mL and 1522 ± 109 ng/mL
